# In patent US8324250B2 (Hoffmann-La Roche Inc., priority 2009, dated 2012):
# Molecular target: T1, recombinant human NK3 receptor (Homo sapiens, UniProt P29371)
# T1 construct: expressed in transfected cells; host or cells: HEK293 cells (transient expression), membranes
# T1 sequence (P29371 1-465): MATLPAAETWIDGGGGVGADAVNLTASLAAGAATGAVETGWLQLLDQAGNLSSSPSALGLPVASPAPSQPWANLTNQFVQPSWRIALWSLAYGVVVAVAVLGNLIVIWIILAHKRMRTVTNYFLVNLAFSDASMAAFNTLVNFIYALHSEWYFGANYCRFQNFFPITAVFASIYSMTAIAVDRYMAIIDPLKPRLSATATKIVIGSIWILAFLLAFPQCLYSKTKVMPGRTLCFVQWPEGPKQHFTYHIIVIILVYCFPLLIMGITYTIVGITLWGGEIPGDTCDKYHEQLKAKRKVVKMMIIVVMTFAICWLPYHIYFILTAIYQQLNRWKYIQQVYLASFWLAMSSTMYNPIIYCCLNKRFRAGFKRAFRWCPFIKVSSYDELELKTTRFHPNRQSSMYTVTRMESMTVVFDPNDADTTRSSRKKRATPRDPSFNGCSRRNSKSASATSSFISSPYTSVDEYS
# Assay: [3H]SR142801 competition binding assay
# Conditions: membranes from HEK293 cells transiently expressing recombinant human NK3 receptor; [3H]SR142801 radioligand; 75 min at RT; Ki by Cheng-Prussoff; read-out: Data Ki (hNK-3 receptor affinity)
# Experimental: [^3H]SR142801 Competition Binding Assay
# hNK3 receptor binding experiment were performed using [^3H]SR142801 (Catalog No. TRK1035, specific activity: 74.0 Ci/mmol, Amersham, GE Healthcare UK limited, Buckinghamshire, UK) and membrane isolated from HEK293 cells transiently expressing recombinant human NK3 receptor. After thawing, the membrane homogenates were centrifuged at 48,000×g for 10 min at 4° C., the pellets were resuspended in the 50 mM Tris-HCl, 4 mM MnCl2, 1 μM phosphoramidon, 0.1% BSA binding buffer at pH 7.4 to a final assay concentration of 5 μg protein/well. […] At the end of the incubation, membranes were filtered onto unitfilter (96-well white microplate with bonded GF/C filter preincubated 1 h in 0.3% PEI+0.3% BSA, Packard BioScience, Meriden, Conn.) with a Filtermate 196 harvester (Packard BioScience) and washed 4 times with ice-cold 50 mM Tris-HCl, pH 7.4 buffer. Nonspecific binding was measured in the presence of 10 μM SB222200 for both radioligands. The radioactivity on the filter was counted (5 min) on a Packard Top-count microplate scintillation counter with quenching correction after addition of 45 μl of microscint 40 (Can berra Packard S. A., Zurich, Switzerland) and shaking for 1 h. Inhibition curves were fitted according to the Hill equation: y=100/(1+(x/IC50)^nH), where nH=slope factor using Excel-fit 4 software (Microsoft). IC50 values were derived from the inhibition curve and the affinity constant (Ki) values were calculated using the Cheng-Prussoff equation Ki═IC50/(1+[L]/KD) where [L] is the concentration of radioligand and KD is its dissociation constant at the receptor, derived from the saturation isotherm. All experiments were performed in duplicate and the mean±standard error (SEM) of the individual Ki values was calculated.
row,Compound,Ki
1,"Cc1noc(-c2ccc(C(=O)N3CCC(C(=O)N[C@@H](c4ccc(F)cc4)C(F)(F)F)(c4ccc(F)cc4)CC3)cc2)n1 (racemic) [Example 202, 4-(4-Fluoro-phenyl)-1-[4-(3-methyl-[1,2,4]oxadiazol-5-yl)-benzoyl]-piperidine-4-carboxylic acid [(SR)-2,2,2-trifluoro-1-(4-fluoro-phenyl)-ethyl]-amide]",6.8 nM
2,"C[C@H](NC(=O)C1(c2ccccc2)CCN(C(=O)C2CCC(c3ccc(Cl)cc3)CC2)CC1)c1ccccc1 (stereo partly drawn) [Example 3, 1-[4-(4- Chlorophenyl)cyclohexanecarbonyl]-4-phenyl-piperidine-4-carboxylic acid ((S)-1-phenyl-ethyl)-amide]",48.2 nM
3,"C[C@H](NC(=O)C1(c2ccccc2)CCN(C(=O)c2ccc(-c3ccc(C(F)(F)F)cc3)cc2)CC1)c1ccccc1 [Example 5, 4-Phenyl-1-(4′-trifluoromethyl-biphenyl-4-carbonyl)-piperidine-4-carboxylic acid ((S)-1-phenyl-ethyl)-amide]",23.9 nM
4,"C[C@H](NC(=O)C1(c2ccccc2)CCN(C(=O)c2ccc(N3CCOCC3)cc2)CC1)c1ccccc1 [Example 8, 1-(4-Morpholin-4-yl-benzoyl)-4-phenyl-piperidine-4-carboxylic acid ((S)-l-phenyl-ethyl)-amide]",84.4 nM
5,"C[C@H](NC(=O)C1(c2ccccc2)CCN(C(=O)c2ccc(N3CCS(=O)(=O)CC3)cc2)CC1)c1ccccc1 [Example 9, 1-[4-(1,1-Dioxo-lλ6-thiomorpholin-4-yl)-benzoyl]-4-phenyl-piperidine-4-carboxylic acid ((S)-1-phenyl-ethyl)-amide]",21.8 nM
6,"C[C@H](NC(=O)C1(c2ccccc2)CCN(C(=O)c2ccc(N3CCOCC3)nc2)CC1)c1ccccc1 [Example 10, 1-(6-Morpholin-4-yl-pyridine-3-carbonyl)-4-phenyl-piperidine-4-carboxylic acid ((S)-1-phenyl-ethyl)-amide]",76.8 nM
7,"C[C@H](NC(=O)C1(c2ccccc2)CCN(C(=O)c2ccc(N3CCCCC3)cc2)CC1)c1ccccc1 [Example 11, 4-Phenyl-1-(4-piperidin-1-yl-benzoyl)-piperidine-4-carboxylic acid ((S)-1-phenyl-ethyl)-amide]",44 nM
8,"C[C@H](NC(=O)C1(c2ccccc2)CCN(C(=O)c2ccc(N3CCN(C)CC3)cc2)CC1)c1ccccc1 [Example 14, 1-[4-(4-Methyl-piperazin-1-yl)-benzoyl]-4-phenyl-piperidine-4-carboxylic acid ((S)-l-phenyl-ethyl)-amide]",98.1 nM
9,"Cc1ccc(-c2nc(C(=O)N3CCC(C(=O)N[C@@H](C)c4ccccc4)(c4ccccc4)CC3)cs2)cc1 [Example 21, 4-Phenyl-1 - (2-p-tolyl-thiazole-4-carbonyl)-piperidine-4-carboxylic acid ((S)-1-phenyl-ethyl)-amide]",99.8 nM
10,"C[C@H](NC(=O)C1(c2ccccc2)CCN(C(=O)c2ccc(-c3cnco3)cc2)CC1)c1ccccc1 [Example 22, 1-(4-Oxazol-5-yl-benzoyl)-4-phenyl-piperidine-4-carboxylic acid ((S)-1-phenyl-ethyl)-amide]",65.8 nM
11,"C[C@H](NC(=O)C1(c2ccccc2)CCN(C(=O)c2ccc(-n3cncn3)cc2)CC1)c1ccccc1 [Example 34, 4-Phenyl-1-(4-[1,2,4]triazo 1-1-yl-benzoyl)-piperidine-4-carboxylic acid ((S)-1-phenyl-ethyl)-amide]",98.5 nM
12,"C[C@H](NC(=O)C1(c2ccccc2)CCN(C(=O)c2ccc(-c3nnco3)cc2)CC1)c1ccccc1 [Example 35, 1-(4-[l,3,4]Oxadiazol-2-yl-benzoyl)-4-phenyl-piperidine-4-carboxylic acid ((S)-1-phenyl-ethyl)-amide]",68.7 nM
13,"C[C@H](NC(=O)C1(c2ccccc2)CCN(C(=O)c2ccc(-c3ccccc3)cn2)CC1)c1ccccc1 [Example 38, 4-Phenyl-1-(5-phenyl-pyridine-2-carbonyl)-piperidine-4-carboxylic acid ((S)-1-phenyl-ethyl)-amide]",21.4 nM

# Further molecules by falling Ki, results first:
row,Ki,Compound
1,96.6 nM,"C[C@H](NC(=O)C1(c2ccccc2)CCN(C(=O)c2ccc(-n3cccc3)cc2)CC1)c1ccccc1 [Example 18, 4-Phenyl-1-(4-pyrrol-l-yl-benzoyl)-piperidine-4-carboxylic acid ((S)-1-phenyl-ethyl)-amide]"
2,80.8 nM,"C[C@H](NC(=O)C1(c2ccccc2)CCN(C(=O)c2ccc(-n3cncn3)nc2)CC1)c1ccccc1 [Example 39, 4-Phenyl-1-(6-[l,2,4]triazol-1-yl-pyridine-3-carbonyl)-piperidine-4-carboxylic acid ((S)-1-phenyl-ethyl)-amide]"
3,76.5 nM,"C[C@H](NC(=O)C1(c2ccccc2)CCN(C(=O)c2csc(-c3ccncc3)n2)CC1)c1ccccc1 [Example 27, 4-Phenyl-1-(2-pyridin-4-yl-thiazole-4-carbonyl)-piperidine-4-carboxylic acid ((S)-1-phenyl-ethyl)-amide]"
4,76.2 nM,"C[C@H](NC(=O)C1(c2ccccc2)CCN(C(=O)c2csc(-c3cccnc3)n2)CC1)c1ccccc1 [Example 28, 4-Phenyl-1-(2-pyridin-3-yl-thiazole-4-carbonyl)-piperidine-4-carboxylic acid ((S)-1-phenyl-ethyl)-amide]"
5,50.4 nM,"C[C@H](NC(=O)C1(c2ccccc2)CCN(C(=O)c2ccc(N3CCCCC3)nc2)CC1)c1ccccc1 [Example 12, 4-Phenyl-1-(3,4,5,6-tetrahydro-2H-[l,2′]bipyridinyl-5′-carbonyl)-piperidine-4-carboxylic acid ((S)-1-phenyl-ethyl)-amide]"
6,40.9 nM,"C[C@H](NC(=O)C1(c2ccccc2)CCN(C(=O)c2ccc(-c3ccccn3)cc2)CC1)c1ccccc1 [Example 6, 4-Phenyl-1-(4-pyridin-2-yl-benzoyl)-piperidine-4-carboxylic acid ((S)-1-phenyl-ethyl)-amide]"
7,39.6 nM,"C[C@H](NC(=O)C1(c2ccccc2)CCN(C(=O)c2ccc(-c3ccncc3)cc2)CC1)c1ccccc1 [Example 7, 4-Phenyl-1-(4-pyndin-4-yl-benzoyl)-piperidine-4-carboxylic acid ((S)-1-phenyl-ethyl)-amide]"
8,29.3 nM,"C[C@H](NC(=O)C1(c2ccc(F)cc2)CCN(C(=O)c2ccc(N3CCS(=O)(=O)CC3)cc2)CC1)c1ccc(F)cc1 [Example 1, 1-[4-(1,1-Dioxo-1λ^6-thiomorpholin-4-yl)-benzoyl]-4-(4-fluoro-phenyl)-piperidine-4-carboxylic acid [(S)-1-(4-fluoro-phenyl)-ethyl]-amide]"
9,28.5 nM,"C[C@H](NC(=O)C1(c2ccccc2)CCN(C(=O)c2ccc(-n3cnnn3)cc2)CC1)c1ccccc1 [Example 40, 4-Phenyl-1-(4-tetrazol-1-yl-benzoyl)-piperidine-4-carboxylic acid ((S)-1-phenyl-ethyl)-amide]"
10,22.9 nM,"C[C@H](NC(=O)C1(c2ccccc2)CCN(C(=O)c2ccc(-c3ccccc3)cc2)CC1)c1ccccc1 [Example 2, 1-(Biphenyl-4-carbonyl)-4-phenyl-piperidine-4-carboxylic acid ((S)-1-phenyl-ethyl)-amide]"
11,19.6 nM,"C[C@H](NC(=O)C1(c2ccccc2)CCN(C(=O)c2ccc(-c3ccc(Cl)c(Cl)c3)cc2)CC1)c1ccccc1 [Example 4, 1-(3′,4′-Dichloro-biphenyl-4-carbonyl)-4-phenyl-piperidine-4-carboxylic acid ((S)-1-phenyl-ethyl)-amide]"
12,9.4 nM,"Cc1nc(-c2ccc(C(=O)N3CCC(C(=O)N[C@@H](C)c4ccccc4)(c4ccccc4)CC3)cc2)no1 [Example 41, 1-[4-(5-Methyl-[1,2,4]oxa-diazol-3-yl)-benzoyl]-4-phenyl-piperidine-4-carboxylic acid ((S)-1-phenyl-ethyl)-amide]"
13,3.2 nM,"Cc1noc(-c2ccc(C(=O)N3CCC(C(=O)N[C@@H](C)c4ccccc4)(c4ccccc4)CC3)cc2)n1 [Example 43, 1-[4-(3-Methyl-[1,2,4]oxa-diazol-5-yl)-benzoyl]-4-phenyl-piperidine 4-carboxylic acid ((S)-1-phenyl-ethyl)-amide]"
